The record followed here is article PMC9520563 (ACS Omega, 2022).

Assay [1] has as its system HepG2. The experiment in a line: cells. To be noted: Homo sapiens, HepG2, 72 h, read-out: IC50 HepG2.
Assay [2] relates to MDA-MB-231. The experiment in a line: cells. Particulars: Homo sapiens, MDA-MB-231, 72 h, read-out: IC50 MDA-MB-231.
Assay [3] deals with HepG2. Particulars: IC50 on LLC-PK1 divided by IC50 on HepG2.
The target of the next assay is porcine brain tubulin (Sus scrofa, UniProt P02550+P02554). The experiment in a line: biochemical. To be noted: read-out: % inhibition of tubulin polymerization.
Sequence of porcine brain tubulin (P02550 whole entry): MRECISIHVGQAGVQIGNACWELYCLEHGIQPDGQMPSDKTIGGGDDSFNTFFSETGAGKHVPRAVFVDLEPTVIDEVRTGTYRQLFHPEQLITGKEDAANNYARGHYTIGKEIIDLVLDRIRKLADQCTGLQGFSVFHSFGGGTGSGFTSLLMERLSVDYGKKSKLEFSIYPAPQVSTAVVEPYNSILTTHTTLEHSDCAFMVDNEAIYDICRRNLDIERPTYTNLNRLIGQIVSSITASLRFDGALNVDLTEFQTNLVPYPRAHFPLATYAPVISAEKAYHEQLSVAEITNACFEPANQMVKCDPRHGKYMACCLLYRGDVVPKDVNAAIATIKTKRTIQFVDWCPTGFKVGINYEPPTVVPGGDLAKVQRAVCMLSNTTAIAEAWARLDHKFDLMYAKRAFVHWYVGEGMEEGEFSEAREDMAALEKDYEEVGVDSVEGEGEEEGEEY
Sequence of porcine brain tubulin (P02554 whole entry): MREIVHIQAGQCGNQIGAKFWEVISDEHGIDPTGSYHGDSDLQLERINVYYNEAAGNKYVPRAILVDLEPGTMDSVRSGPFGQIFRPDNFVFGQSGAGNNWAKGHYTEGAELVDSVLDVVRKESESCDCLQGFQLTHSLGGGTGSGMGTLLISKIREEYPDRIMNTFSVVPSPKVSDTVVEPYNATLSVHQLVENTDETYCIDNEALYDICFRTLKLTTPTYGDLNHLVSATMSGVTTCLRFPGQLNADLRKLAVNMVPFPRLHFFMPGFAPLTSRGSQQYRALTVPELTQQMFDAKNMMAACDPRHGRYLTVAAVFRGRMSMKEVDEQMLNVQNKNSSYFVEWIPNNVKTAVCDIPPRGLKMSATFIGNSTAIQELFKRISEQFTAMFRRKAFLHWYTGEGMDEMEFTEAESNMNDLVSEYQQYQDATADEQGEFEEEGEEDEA
The subject of assay [4] is MDA-MB-231. To be noted: IC50 on LLC-PK1 divided by IC50 on MDA-MB-231.

On to `COc1cc(/C=C/C(=O)/C=C/c2cn(-c3ccccc3)nc2-c2ccccc2)ccc1O` [Compound 10c, (1E,4E)-1-(1,3-Diphenyl-1H-pyrazol-4-yl)-5-(4-hydroxy-3-methoxyphenyl)penta-1,4-dien-3-one], for which the IC50 was found to be 10.6 ± 1.38 µM in the assay with HepG2 [1] and 5.5 ± 0.22 µM in the assay with MDA-MB-231 [2]. For the same compound, the “SI HepG2” value with HepG2 [3] is 1.49. For the same compound, the inhibition at 20 µM at porcine brain tubulin stood at 40.76 ± 0.33%.
In the case of `COc1ccc(/C=C/C(=O)/C=C/c2c(C)nn(-c3cccc([N+](=O)[O-])c3)c2Cl)cc1OC` [Compound 8a, (1E,4E)-1-[5-Chloro-3-methyl-1-(3-nitrophenyl)-1H-pyrazol-4-yl]-5-(3,4-dimethoxyphenyl)penta-1,4-dien-3-one], the IC50 was 7.19 ± 0.37 µM in the assay on HepG2 [1] and 6.89 ± 0.31 µM in the assay with MDA-MB-231 [2]. For the same compound, the “SI MDA-MB-231” value with MDA-MB-231 [4] is given as 3.05. Moreover, the “SI HepG2” value with HepG2 [3] was 2.93. Moreover, the inhibition at 20 µM at porcine brain tubulin was 25.9 ± 0.33%.
For `O=C(/C=C/c1ccc2c(c1)OCO2)/C=C/c1cn(-c2ccccc2)nc1-c1ccccc1` [Compound 10f, (1E,4E)-1-(Benzo[d][1,3]dioxol-5-yl)-5-(1,3-diphenyl-1H-pyrazol-4-yl)penta-1,4-dien-3-one], the IC50 in the assay on HepG2 [1] is more than 25 µM; with MDA-MB-231 [2], 22 ± 3.24 µM.
As to `Cc1nn(-c2cccc([N+](=O)[O-])c2)c(Cl)c1/C=C/C(=O)/C=C/c1ccc2c(c1)OCO2` [Compound 8f, (1E,4E)-1-(Benzo[d][1,3]dioxol-5-yl)-5-(5-chloro-3-methyl-1-(3-nitrophenyl)-1H-pyrazol-4-yl)penta-1,4-dien-3-one], the IC50 in the assay with HepG2 [1] and with MDA-MB-231 [2] was more than 25 µM in each case.
Regarding `COc1cc(/C=C/C(=O)/C=C/c2c(C)nn(-c3cccc([N+](=O)[O-])c3)c2Cl)cc(OC)c1O` [Compound 8h, (1E,4E)-1-(5-Chloro-3-methyl-1-(3-nitrophenyl)-1H-pyrazol-4-yl)-5-(4-hydroxy-3,5-dimethoxyphenyl)penta-1,4-dien-3-one], the IC50 in the assay with HepG2 [1] was 6.69 ± 0.04 µM; in the assay with MDA-MB-231 [2], 2.56 ± 0.01 µM. The “SI MDA-MB-231” value in the assay on MDA-MB-231 [4] worked out at 6.01. Also, the “SI HepG2” value in the assay on HepG2 [3] was found to be 2.30. Also, the inhibition at 20 µM on porcine brain tubulin was 22.1 ± 0.84%.
In the case of `COc1cc(/C=C/C(=O)/C=C/c2c(C)nn(-c3cccc([N+](=O)[O-])c3)c2Cl)ccc1O` [Compound 8c, (1E,4E)-1-[5-Chloro-3-methyl-1-(3-nitrophenyl)-1H-pyrazol-4-yl]-5-(4-hydroxy-3-methoxyphenyl)penta-1,4-dien-3-one], the results for the IC50 in the assay with HepG2 [1] and in the assay on MDA-MB-231 [2] were 16.6 ± 0.45 µM and 7 ± 0.02 µM, respectively.
`COc1cc(/C=C/C(=O)/C=C/c2c(C)nn(-c3cccc([N+](=O)[O-])c3)c2Cl)cc(OC)c1OC` [Compound 8g, (1E,4E)-1-(5-Chloro-3-methyl-1-(3-nitrophenyl)-1H-pyrazol-4-yl)-5-(3,4,5-trimethoxyphenyl)penta-1,4-dien-3-one]: the IC50 was 14.65 ± 0.1 µM with HepG2 [1] and 2.43 ± 0.04 µM in the assay on MDA-MB-231 [2]. Further, the “SI MDA-MB-231” value in the assay on MDA-MB-231 [4] was found to be 2.44. Also, the “SI HepG2” value in the assay on HepG2 [3] was 0.40.
Consider `Cc1nn(-c2ccccc2)c(Cl)c1/C=C/C(=O)/C=C/c1ccc2c(c1)OCO2` [Compound 7f, (1E,4E)-1-(Benzo[d][1,3]dioxol-5-yl)-5-(5-chloro-3-methyl-1-phenyl-1H-pyrazol-4-yl)penta-1,4-dien-3-one], for which the results for the IC50 with HepG2 [1] and in the assay on MDA-MB-231 [2] were more than 25 µM and 16.67 ± 0.07 µM, respectively.
For the compound `COc1cc(/C=C/C(=O)/C=C/c2c(C)nn(-c3ccccc3)c2Cl)ccc1O` [Compound 7c, (1E,4E)-1-(5-Chloro-3-methyl-1-phenyl-1H-pyrazol-4-yl)-5-(4-hydroxy-3-methoxyphenyl)penta-1,4-dien-3-one], the IC50 in the assay with HepG2 [1] worked out at 8 ± 0.87 µM; in the assay on MDA-MB-231 [2], 7.71 ± 0.32 µM. For the same compound, in the assay on MDA-MB-231 [4], the “SI MDA-MB-231” value was 1.24. In the assay on HepG2 [3], the “SI HepG2” value was found to be 1.19.
As to `COc1ccc(/C=C/C(=O)/C=C/c2cn(-c3ccccc3)nc2-c2ccccc2)c(OC)c1` [Compound 10b, (1E,4E)-1-(2,4-Dimethoxyphenyl)-5-(1,3-diphenyl-1H-pyrazol-4-yl)penta-1,4-dien-3-one], the IC50 in the assay with HepG2 [1] and with MDA-MB-231 [2] was more than 25 µM throughout.
`CCOc1cc(/C=C/C(=O)/C=C/c2c(C)nn(-c3ccccc3)c2Cl)ccc1O` [Compound 7e, (1E,4E)-1-(5-Chloro-3-methyl-1-phenyl-1H-pyrazol-4-yl)-5-(4-hydroxy-3-ethoxyphenyl)penta-1,4-dien-3-one]: the IC50 stood at 13.2 ± 1.41 µM in the assay on HepG2 [1] and 13.5 ± 1.43 µM in the assay on MDA-MB-231 [2].
As to `CCOc1cc(/C=C/C(=O)/C=C/c2c(C)nn(-c3cccc([N+](=O)[O-])c3)c2Cl)ccc1O` [Compound 8e, (1E,4E)-1-[5-Chloro-3-methyl-1-(3-nitrophenyl)-1H-pyrazol-4-yl]-5-(4-hydroxy-3-ethoxyphenyl)penta-1,4-dien-3-one], the half-maximal inhibitory concentration (IC50) in the assay on HepG2 [1] is 11.18 ± 0.04 µM; in the assay on MDA-MB-231 [2], 15.1 ± 0.2 µM.
With `COc1ccc(/C=C/C(=O)/C=C/c2c(C)nn(-c3ccccc3)c2Cl)cc1O` [Compound 7d, (1E,4E)-1-(5-Chloro-3-methyl-1-phenyl-1H-pyrazol-4-yl)-5-(3-hydroxy-4-methoxyphenyl)penta-1,4-dien-3-one], the IC50 with HepG2 [1] was 14.2 ± 0.77 µM; with MDA-MB-231 [2], 5.61 ± 0.24 µM. The “SI HepG2” value in the assay with HepG2 [3] is reported as 1.14. The inhibition at 20 µM on porcine brain tubulin worked out at 52 ± 0.65%.
`COc1cc(/C=C/C(=O)CC(=O)/C=C/c2ccc(O)c(OC)c2)ccc1O` [curcumin, reference compound]: the IC50 in the assay on HepG2 [1] is 23.4 ± 7.27 µM; in the assay with MDA-MB-231 [2], 20.7 ± 0.8 µM. Besides, in the assay with MDA-MB-231 [4], the “SI MDA-MB-231” value was determined as 1.72. Further, the “SI HepG2” value in the assay with HepG2 [3] came out at 1.51.
With `CC(=O)O[C@H]1C(=O)[C@@]2(C)[C@H]([C@H](OC(=O)c3ccccc3)[C@]3(O)C[C@H](OC(=O)[C@H](O)[C@@H](NC(=O)c4ccccc4)c4ccccc4)C(C)=C1C3(C)C)[C@]1(OC(C)=O)CO[C@@H]1C[C@@H]2O` [paclitaxel, reference compound], the values for the 50% inhibitory concentration (IC50) in the assay with HepG2 [1] and with MDA-MB-231 [2] were 12 ± 0.56 µM and 8.79 ± 0.96 µM, respectively.
As for `COc1ccc(/C=C/C(=O)/C=C/c2cn(-c3ccccc3)nc2-c2ccccc2)cc1O` [Compound 10d, (1E,4E)-1-(1,3-Diphenyl-1H-pyrazol-4-yl)-5-(3-hydroxy-4-methoxyphenyl)penta-1,4-dien-3-one], the results for the half-inhibitory concentration (IC50) in the assay on HepG2 [1] and in the assay on MDA-MB-231 [2] were 6.74 ± 0.26 µM and 3.29 ± 0.18 µM, respectively. Moreover, the “SI MDA-MB-231” value in the assay with MDA-MB-231 [4] was found to be 2.55. Also, the “SI HepG2” value with HepG2 [3] was 1.25. Also, the inhibition at 20 µM on porcine brain tubulin was 35.5 ± 0.51%.
Consider `COc1ccc(/C=C/C(=O)/C=C/c2cn(-c3ccccc3)nc2-c2ccccc2)cc1OC` [Compound 10a, (1E,4E)-1-(3,4-Dimethoxyphenyl)-5-(1,3-diphenyl-1H-pyrazol-4-yl)penta-1,4-dien-3-one], for which the IC50 in the assay on HepG2 [1] is more than 25 µM; in the assay with MDA-MB-231 [2], 23.3 ± 2.37 µM.
For `COc1ccc(/C=C/C(=O)/C=C/c2c(C)nn(-c3ccccc3)c2Cl)cc1OC` [Compound 7a, (1E,4E)-1-(5-Chloro-3-methyl-1-phenyl-1H-pyrazol-4-yl)-5-(3,4-dimethoxyphenyl)penta-1,4-dien-3-one] the same measures were 11.6 ± 1.2 µM and 6.6 ± 0.16 µM.
In the case of `COc1cc(/C=C/C(=O)/C=C/c2cn(-c3ccccc3)nc2-c2ccccc2)cc(OC)c1O` [Compound 10h, (1E,4E)-1-(1,3-Diphenyl-1H-pyrazol-4-yl)-5-(4-hydroxy-3,5-dimethoxyphenyl)penta-1,4-dien-3-one], the IC50 was 4.98 ± 0.09 µM with HepG2 [1] and 4.06 ± 0.02 µM with MDA-MB-231 [2]. The “SI MDA-MB-231” value in the assay on MDA-MB-231 [4] is 2.51. Moreover, the “SI HepG2” value in the assay on HepG2 [3] turned out to be 2.05. Also, the inhibition at 20 µM at porcine brain tubulin was found to be 25.73 ± 0.15%.
Take `COc1cc(/C=C/C(=O)/C=C/c2cn(-c3ccccc3)nc2-c2ccccc2)cc(OC)c1OC` [Compound 10g, (1E,4E)-1-(1,3-Diphenyl-1H-pyrazol-4-yl)-5-(3,4,5-trimethoxyphenyl)penta-1,4-dien-3-one]: the IC50 with HepG2 [1] is more than 25 µM; in the assay with MDA-MB-231 [2] it was 14.3 ± 0.37 µM.
`COc1cc(/C=C/C(=O)/C=C/c2c(C)nn(-c3ccccc3)c2Cl)cc(OC)c1O` [Compound 7h, (1E,4E)-1-(5-Chloro-3-methyl-1-phenyl-1H-pyrazol-4-yl)-5-(4-hydroxy-3,5-dimethoxyphenyl)penta-1,4-dien-3-one]: the IC50 in the assay with HepG2 [1] amounted to 6.03 ± 0.06 µM; with MDA-MB-231 [2], 3.64 ± 0.02 µM. In the assay with HepG2 [3], the “SI HepG2” value was 2.14. Further, the inhibition at 20 µM at porcine brain tubulin was found to be 45.3 ± 0.81%.
Turning to `CCOc1cc(/C=C/C(=O)/C=C/c2cn(-c3ccccc3)nc2-c2ccccc2)ccc1O` [Compound 10e, (1E,4E)-1-(1,3-Diphenyl-1H-pyrazol-4-yl)-5-(4-hydroxy-3-ethoxyphenyl)penta-1,4-dien-3-one], the IC50 in the assay with HepG2 [1] is 13.5 ± 1.53 µM; in the assay with MDA-MB-231 [2], 6.14 ± 0.33 µM.
For `COc1ccc(/C=C/C(=O)/C=C/c2c(C)nn(-c3cccc([N+](=O)[O-])c3)c2Cl)cc1O` [Compound 8d, (1E,4E)-1-[5-Chloro-3-methyl-1-(3-nitrophenyl)-1H-pyrazol-4-yl]-5-(3-hydroxy-4-methoxyphenyl)penta-1,4-dien-3-one] the same measures were 25.3 ± 0.3 µM and 7.25 ± 0.08 µM.
The like results for `COc1ccc(/C=C/C(=O)/C=C/c2c(C)nn(-c3cccc([N+](=O)[O-])c3)c2Cl)c(OC)c1` [Compound 8b, (1E,4E)-1-[5-Chloro-3-methyl-1-(3-nitrophenyl)-1H-pyrazol-4-yl]-5-(2,4-dimethoxyphenyl)penta-1,4-dien-3-one] were, in that order, 18.3 ± 3.14 µM and 12.3 ± 1.29 µM.
The like results for `COc1ccc(/C=C/C(=O)/C=C/c2c(C)nn(-c3ccccc3)c2Cl)c(OC)c1` [Compound 7b, (1E,4E)-1-(5-Chloro-3-methyl-1-phenyl-1H-pyrazol-4-yl)-5-(2,4-dimethoxyphenyl)penta-1,4-dien-3-one] were, in that order, more than 25 µM and 13.3 ± 0.39 µM.
As to `COc1cc(/C=C/C(=O)/C=C/c2c(C)nn(-c3ccccc3)c2Cl)cc(OC)c1OC` [Compound 7g, (1E,4E)-1-(5-Chloro-3-methyl-1-phenyl-1H-pyrazol-4-yl)-5-(3,4,5-trimethoxyphenyl)penta-1,4-dien-3-one], the IC50 in the assay on HepG2 [1] turned out to be 13.03 ± 0.12 µM; in the assay with MDA-MB-231 [2] it was 7.84 ± 0.07 µM.
